Reference: patent US9274101B2 (BIOLOG, Inc., priority 2001, dated 2016)

How the values were obtained:
Type in all cases: cell-based, human
[1] = tested on: Undifferentiated HL-60 cells; experiment: Energy use by undifferentiated HL-60 cells
HL-60 cells [2] = experiment: HL-60 responses to selected compounds at a range of concentrations
Procedure, shortened: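 Washed HL-60 cells (5×10^4/well) in DME-R were exposed to test energy sources at final 0.033 to 20 mM for 24 h at 37 °C, then MTS/MPMS was added for a further 24 h. OD490 (ref 650 nm) was corrected with cell-free control plates and normalized to % of no-energy-source control.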

HepG2 cells = HepG2 cells on flat bottom plastic wells, energy sources at a range of concentrations
Procedure, shortened: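 HepG2 cells plated overnight at 4×10^4 cells/cm^2 in glucose-, glutamine- and pyruvate-free DME with 10% HI FBS, then exposed to each energy source at 0.033 to 20 mM final for 48 to 72 h at 37° C, 5% CO2. MTS/PMS colour read at 490 nm (reference 650 nm) after 4-24 h; cell-free plate OD subtracted, data normalised to % negative control (water, no energy source).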

HL-60 cells [3] = experiment: Effect of 10 mM citric acid on HL-60 energy utilization; details: negative control without energy sources and without citric acid

SMILES: O=C1O[C@H]([C@@H](O)CO)[C@@H](O)[C@@H]1O [L-gal acid g-lactone]
- Energy Use by Undifferentiated HL-60 Cells ([1]; Conc. 0.03 mM): 117.0 % of negative control
- Energy Use by Undifferentiated HL-60 Cells ([1]; Conc. 0.10 mM): 125.9 % of negative control
- Energy Use by Undifferentiated HL-60 Cells ([1]; Conc. 0.33 mM): 132.9 % of negative control
- Energy Use by Undifferentiated HL-60 Cells ([1]; Conc. 1.00 mM): 137.0 % of negative control
- Energy Use by Undifferentiated HL-60 Cells ([1]; Conc. 3.3 mM): 160.8 % of negative control
- Energy Use by Undifferentiated HL-60 Cells ([1]; Conc. 10 mM): 153.0 % of negative control
- Energy Use by Undifferentiated HL-60 Cells ([1]; Conc. 15 mM): 163.4 % of negative control
- Energy Use by Undifferentiated HL-60 Cells ([1]; Conc. 20 mM): 126.2 % of negative control
- HL-60 Cell Responses to Selected Compounds from PM1 and PM2 (HL-60 cells [2]; Conc. 0.03 mM): 129.3 % of negative control
- HL-60 Cell Responses to Selected Compounds from PM1 and PM2 (HL-60 cells [2]; Conc. 0.10 mM): 132.3 % of negative control
- HL-60 Cell Responses to Selected Compounds from PM1 and PM2 (HL-60 cells [2]; Conc. 0.33 mM): 132.4 % of negative control
- HL-60 Cell Responses to Selected Compounds from PM1 and PM2 (HL-60 cells [2]; Conc. 1.00 mM): 145.0 % of negative control
- HL-60 Cell Responses to Selected Compounds from PM1 and PM2 (HL-60 cells [2]; Conc. 3.3 mM): 141.5 % of negative control
- HL-60 Cell Responses to Selected Compounds from PM1 and PM2 (HL-60 cells [2]; Conc. 10 mM): 122.8 % of negative control
- HL-60 Cell Responses to Selected Compounds from PM1 and PM2 (HL-60 cells [2]; Conc. 15 mM): 125.0 % of negative control
- HL-60 Cell Responses to Selected Compounds from PM1 and PM2 (HL-60 cells [2]; Conc. 20 mM): 100.4 % of negative control
- HepG2 Cells Responses After 72 hours in Culture and a 4 hour Color Development Period (HepG2 cells; Conc. 0.03 mM): 121.2 % of negative control
- HepG2 Cells Responses After 72 hours in Culture and a 4 hour Color Development Period (HepG2 cells; Conc. 0.10 mM): 127.4 % of negative control
- HepG2 Cells Responses After 72 hours in Culture and a 4 hour Color Development Period (HepG2 cells; Conc. 0.33 mM): 196.4 % of negative control
- HepG2 Cells Responses After 72 hours in Culture and a 4 hour Color Development Period (HepG2 cells; Conc. 1.00 mM): 164.1 % of negative control
- HepG2 Cells Responses After 72 hours in Culture and a 4 hour Color Development Period (HepG2 cells; Conc. 3.3 mM): 172.8 % of negative control
- HepG2 Cells Responses After 72 hours in Culture and a 4 hour Color Development Period (HepG2 cells; Conc. 10 mM): 181.5 % of negative control
- HepG2 Cells Responses After 72 hours in Culture and a 4 hour Color Development Period (HepG2 cells; Conc. 15 mM): 215.1 % of negative control
- HepG2 Cells Responses After 72 hours in Culture and a 4 hour Color Development Period (HepG2 cells; Conc. 20 mM): 231.2 % of negative control
- Effect of 10 mM Citric Acid on HL-60 Energy Utilization (HL-60 cells [3]; energy source 0.03 mM with 10 mM citric acid): 16.2 % of negative control
- Effect of 10 mM Citric Acid on HL-60 Energy Utilization (HL-60 cells [3]; energy source 0.10 mM with 10 mM citric acid): 18.2 % of negative control
- Effect of 10 mM Citric Acid on HL-60 Energy Utilization (HL-60 cells [3]; energy source 0.33 mM with 10 mM citric acid): 19.7 % of negative control
- Effect of 10 mM Citric Acid on HL-60 Energy Utilization (HL-60 cells [3]; energy source 1.00 mM with 10 mM citric acid): 38.6 % of negative control
- Effect of 10 mM Citric Acid on HL-60 Energy Utilization (HL-60 cells [3]; energy source 3.3 mM with 10 mM citric acid): 188.9 % of negative control
- Effect of 10 mM Citric Acid on HL-60 Energy Utilization (HL-60 cells [3]; energy source 10 mM with 10 mM citric acid): 138.4 % of negative control
- Effect of 10 mM Citric Acid on HL-60 Energy Utilization (HL-60 cells [3]; energy source 15 mM with 10 mM citric acid): 122.4 % of negative control
- Effect of 10 mM Citric Acid on HL-60 Energy Utilization (HL-60 cells [3]; energy source 20 mM with 10 mM citric acid): 111.5 % of negative control
